Experimental data published in patent US20080118580A1, “ADHESION INHIBITION OF FUNGI” (priority 2001, published 2008).

Assays:
[1] = tested on: C. albicans; experiment: Growth test; format: cell-based, Candida albicans; details: for Growth rate: YPD medium, 30° C., over 10 hours, reference 0.55
Protocol: The growth rates were measured over 10 hours in the YPD medium already described above. The optical density was initially set at 0.1 OD and the cultures were incubated at 30° C.
Here it was assumed that an optical density of 1 measured at wavelength 600 nm corresponds to about 10^7 cells.

[2] = tested on: Candida albicans strain SC5314; experiment: Test for inhibition of the formation of hyphae; format: cell-based; details: for hyphae formation (in words): at the concentrations used
Protocol: An initial culture of the Candida albicans strain SC5314 was grown overnight in minimal medium (0.67% yeast nitrogen base w/o amino acids (Difco), 2% glucose) up to an optical density of 1 at 600 nm, and washed once in sterile double-distilled H2O. For the induction of hyphae, 100 μl to 900 μl of YPS (1% yeast extract, 2% peptone, 10% horse serum (Sigma)) were added, and incubated at 37° C. with shaking. To test the inhibitory action of different substances, farnesol (50 μl/l), propolis extract (200 ppm in ethanolic solution, Sigma, P 5182, origin: Alsace, France) or fucoidan (2 mg/ml, Sigma, F 5631) were added to the medium. A culture of 100 μl of cell suspension in 900 μl of YPD medium (1% yeast extract, 2% peptone, 2% glucose) which was incubated at 30° C. with shaking was used as the control. To quantify the formation of hyphae, 2×100 cells were counted under the microscope (Zeiss Axioscope) every 20 min. and the germ tubes formed calculated as a percentage of the total cells.

[3] = tested on: Candida albicans; experiment: Wash tests, contamination with Candida albicans; format: cell-based; details: addition of farnesol to detergent, versus same detergent without
Protocol: The wash tests were performed in standard domestic washing machines (Miele W 918 Novotronic), which had previously been disinfected, in the delicates program at 30° C. The fungal cells were applied onto textile supports (polyamid, 2.5×2.5 cm) (2×10^5 cells/microbe support) and washed together with 3.5 kg of disinfected fill laundry with the detergent formulae. As the control, the wash was performed with the same detergent without farnesol. After the washing and drying in the air, both the residual microbial burden and also the microbial transfer to other, sterile textiles were determined.
The experiments were performed with the detergents A (addition of farnesol) and B (reference).
75 ml of the liquid detergent is added; this corresponds to a farnesol concentration of 20 ppm in the wash liquor.

[4] = tested on: C. albicans culture (strain SC5314); experiment: Adhesion test on textiles (tetrazolium blue staining, relative light reflection); format: cell-based, Candida albicans
Protocol: For assessment of the inhibitory action of different substances on the adhesion of fungi, a procedure with which this adhesion to textiles can be determined semi-quantitatively was developed.
A 50 ml C. albicans culture (strain SC5314) was grown overnight with shaking in a conical flask at 30° C. up to an optical density (OD) of ca. 1 (measured at 600 nm with a spectrophotometer). After washing once in water, the cells were again incubated for one hour at 30° C. with shaking. Next, 2.5 ml of the culture were diluted in 22.5 ml of YPD medium (1% yeast extract, 2% peptone, 2% glucose) or YPS medium (1% yeast extract, 2% peptone, 10% horse serum). The YPD cultures were incubated with shaking for 2 hours at 30° C., and the YPS cultures for 2 hours at 37° C. for the induction of hyphae.
As desired, test substance was added to the media. In addition a 2.5×2.5 cm piece of test fabric (polyester microfibers) was added to the media. After incubation, the textile pieces were washed three times with wash liquor (Perwoll powder, 12 ml/l water) and twice with water (5 min. with shaking each time), then transferred to a 6-well plate and covered with a layer of YPD-tetrazolium blue agar (1% yeast extract, 2% peptone, 2% glucose, 1.5% agar, 0.5 mg/ml tetrazolium blue chloride).
The depth of the blue coloration due to enzymatic conversion of the dyestuff tetrazolium blue chloride (3,3′-[3,3′-dimethoxy(1,1′-biphenyl)-4,4′-diyl]-bis-[2,5-diphenyl-2H-tetrazolium] dichloride (Sigma, T4375) by cellular dehydrogenases of adhered C. albicans served as a measure for the number of adhered Candida cells and was measured by measurement of the relative light reflection (measurement geometry d/8°) with a differential calorimeter (Dr. Lange Micro Color). The instrument was calibrated in accordance with the manufacturer's instructions. For this, the textile patches were dissolved out from the agar and subjected to the measurement with the differential calorimeter. In accordance with DIN 5033, the differential calorimeter determines the diffuse reflection of the samples at an angle of 8°.

[5] = description, no concentration given

CCO [Ethanol]
Growth rate ([1]; 2 wt. %): 0.5 h⁻¹

CC(C)=CCC/C(C)=C/CO [Geraniol, geraniol]
Effective inhibitory concentration (hyphae formation inhibiting concentration) [2]: 0.01% wt. %

CC(C)=CCCC(C)=CCCC(C)=CCO [Farnesol, farnesol]
cross contamination of other laundry items (in words) [3]: completely prevented | residual microbial burden (in words) [3]: drastically reduced | Growth rate ([1]; 0.0025 wt. %): 0.51 h⁻¹ | Number of hyphal cells formed ([2]; YPS + farnesol 0.005 wt. %, t 0 min, 37° C., YPS alone 0): 0 | Number of hyphal cells formed ([2]; YPS + farnesol 0.005 wt. %, t 20 min, YPS alone 0): 0 | Number of hyphal cells formed ([2]; YPS + farnesol 0.005 wt. %, t 40 min, YPS alone 15): 0 | Number of hyphal cells formed ([2]; YPS + farnesol 0.005 wt. %, t 60 min, YPS alone 75): 3 | hyphae formation (in words) [2]: essentially complete prevention | Relative light reflection ([4]; 0.0025 wt. % test substance, polyester microfiber fabric, higher reflection = fewer adhered cells (YPD reference 48.7, YPS 44.7)): 49.3 | adhesion of fungi to textiles (in words) ([4]; concentrations of Table 1): reduction in the adhesion of fungi to textiles down to almost complete inhibition of the adhesion | adhesion of fungal cells to surfaces (in words) ([4]; in solutions which contain the substance): scarcely or not at all

fucoidan
cell growth (in words) [1, 5]: not affected | Number of hyphal cells formed ([2]; YPS + fucoidan 0.2 wt. %, t 0 min, YPS alone 0): 0 | Number of hyphal cells formed ([2]; YPS + fucoidan 0.2 wt. %, t 20 min, YPS alone 0): 0 | Number of hyphal cells formed ([2]; YPS + fucoidan 0.2 wt. %, t 40 min, YPS alone 15): 4 | Number of hyphal cells formed ([2]; YPS + fucoidan 0.2 wt. %, t 60 min, YPS alone 75): 25 | hyphae formation (in words) [2]: marked reduction | formation of hyphae by Candida albicans (in words) [2, 5]: significantly reduced

CC=Cc1ccc(OC)cc1 [Anethole, 1-methoxy-4-(1-propenyl)benzene]
Effective inhibitory concentration (hyphae formation inhibiting concentration) [2]: 0.10% wt. %

O=C(O)/C=C/c1ccccc1 [Trans-cinnamic acid, trans-cinnamic acid]
Effective inhibitory concentration (hyphae formation inhibiting concentration) [2]: 0.01% wt. %
